Key:
[1] = biological target: full-length activated BTK (wildtype) (Homo sapiens (Human), UniProt Q06187); assay: AlphaScreen assay, wild-type BTK; format: biochemical
Description: (§1) The activated BTK was frozen in 50 μl aliquots (125-150 μg/ml).
(§2) BTK activity was assayed using a PLCγ2-derived biotinylated peptide substrate (biotin-[…]-OH) and AlphaScreen™ (Amplified Luminescent Proximity Homogeneous Assay) technology. The extent of peptide phosphorylation was determined by using acceptor beads conjugated to phosphotyrosine antibody that recognized the phosphorylated peptide and donor beads conjugated to streptavidin that binds to the biotin on the peptide. Excitation of the donor beads converted ambient oxygen to excited singlet oxygen which when in close proximity to acceptor beads, reacted with acceptor beads resulting in signal amplification.
(§3) Test inhibitors and controls were prepared in 10% DMSO at 10-fold the desired final concentration and added to each well of a reaction plate (Corning 96-well half-area solid white nonbinding surface plate) in a volume of 2.5 μl. […] The plate was incubated for 120 min at room temperature and the reaction stopped by the addition of 10 μl stop/detection mixture containing 35 mM EDTA, 50 ug/ml AlphaScreen™ Streptavidin Donor beads (final concentration is 500 ng/well) and AlphaScreen™ Phospho-tyrosine (P-Tyr-100) Acceptor beads (final concentration is 500 ng/well) under green light conditions. The plate was incubated overnight at room temperature in the dark and the plates read on the BMG PolarStar Omega ([…], Gain=4000). Data were archived and analyzed with a 4-parameter fit to generate IC50 values using the CDD Vault from Collaborative Drug Discovery.

[2] = biological target: full-length activated BTK mutant C481S (Homo sapiens (Human), UniProt Q06187, C481S); assay: AlphaScreen assay, BTK mutant C481S; format: biochemical
Description: as §1, §2, §3

full-length activated BTK (wildtype), sequence (Q06187 whole entry): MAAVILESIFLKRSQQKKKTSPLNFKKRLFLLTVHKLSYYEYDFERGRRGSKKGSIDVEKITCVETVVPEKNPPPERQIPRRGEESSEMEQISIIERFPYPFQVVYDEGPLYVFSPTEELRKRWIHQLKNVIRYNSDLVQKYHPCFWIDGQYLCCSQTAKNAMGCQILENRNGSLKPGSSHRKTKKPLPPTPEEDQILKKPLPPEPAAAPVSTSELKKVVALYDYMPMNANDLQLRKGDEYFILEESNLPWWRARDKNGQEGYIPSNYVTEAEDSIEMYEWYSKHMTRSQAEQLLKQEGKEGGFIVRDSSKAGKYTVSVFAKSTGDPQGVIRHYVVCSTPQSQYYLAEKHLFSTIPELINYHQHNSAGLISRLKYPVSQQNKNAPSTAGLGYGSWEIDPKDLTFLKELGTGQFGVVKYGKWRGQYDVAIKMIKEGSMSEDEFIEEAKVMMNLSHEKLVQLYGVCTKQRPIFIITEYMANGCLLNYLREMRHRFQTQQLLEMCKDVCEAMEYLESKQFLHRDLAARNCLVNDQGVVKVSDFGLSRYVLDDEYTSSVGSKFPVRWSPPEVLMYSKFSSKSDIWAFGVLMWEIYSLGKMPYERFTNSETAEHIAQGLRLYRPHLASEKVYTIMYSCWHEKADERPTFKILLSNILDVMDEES
full-length activated BTK mutant C481S, sequence (Q06187 whole entry C481S): as the sequence (Q06187 whole entry) above, with C481S counted along it

Question: With `C=CC(=O)N1CCCC(Nc2ncnc3[nH]cc(C(=O)c4ccc(Oc5ccccc5)cc4Cl)c23)C1` (racemic) [Compound I-321r, (racemic)-1-(3-((5-(2-chloro-4-phenoxybenzoyl)-7H-pyrrolo[2,3-d]pyrimidin-4-yl)amino)piperidin-1-yl)prop-2-en-1-one] as the molecule, how does the IC50 [1] read?
Answer: 4.5 nM

Question: And the IC50 [2]?
Answer: 179 nM

Question: `C=CS(=O)(=O)N1CCCC(Nc2ncnc3[nH]cc(C(=O)c4ccc(Oc5ccccc5)cc4Cl)c23)C1` (racemic) [Compound I-322r, (racemic)-(2-chloro-4-phenoxyphenyl)(4-((1-(vinylsulfonyl)piperidin-3-yl)amino)-7H-pyrrolo[2,3-d]pyrimidin-5-yl)methanone] was tested. Which IC50 [1] did it give?
Answer: 10.4 nM

Question: And the IC50 [2]?
Answer: 98.6 nM

Question: What does the source list for `CC#CC(=O)N1CCCC(Nc2ncnc3[nH]cc(C(=O)c4ccc(Oc5ccccc5)cc4Cl)c23)C1` (racemic) [Compound I-324r, (racemic)-1-(3-((5-(2-chloro-4-phenoxybenzoyl)-7H-pyrrolo[2,3-d]pyrimidin-4-yl)amino)piperidin-1-yl)but-2-yn-1-one]?
Answer: IC50 [1]: 17.2 nM; IC50 [2]: 105 nM

Question: For `C=CC(=O)N1CCCC1CNc1ncnc2[nH]cc(C(=O)c3ccc(Oc4ccccc4)cc3Cl)c12` (racemic) [Compound I-325r, (racemic)-1-(2-(((5-(2-chloro-4-phenoxybenzoyl)-7H-pyrrolo[2,3-d]pyrimidin-4-yl)amino)methyl)pyrrolidin-1-yl)prop-2-en-1-one], which IC50 [1] is on record?
Answer: 0.98 nM

Question: And the IC50 [2]?
Answer: 136 nM

Question: Which results are given for `C=CS(=O)(=O)N1CCCC1CNc1ncnc2[nH]cc(C(=O)c3ccc(Oc4ccccc4)cc3Cl)c12` (racemic) [Compound I-326r, (racemic)-(2-chloro-4-phenoxyphenyl)(4-(((1-(vinylsulfonyl)pyrrolidin-2-yl)methyl)amino)-7H-pyrrolo[2,3-d]pyrimidin-5-yl)methanone]?
Answer: IC50 [1]: 4.33 nM; IC50 [2]: 419 nM

Question: `CC#CC(=O)N1CCCC1CNc1ncnc2[nH]cc(C(=O)c3ccc(Oc4ccccc4)cc3Cl)c12` (racemic) [Compound I-328r, (racemic)-1-(2-(((5-(2-chloro-4-phenoxybenzoyl)-7H-pyrrolo[2,3-d]pyrimidin-4-yl)amino)methyl)pyrrolidin-1-yl)but-2-yn-1-one] was tested. Which IC50 [1] did it give?
Answer: 0.98 nM

Question: What about the IC50 [2] of the same molecule?
Answer: 18.4 nM

Question: What does the source list for `O=C(c1ccc(Oc2ccccc2)cc1Cl)c1c[nH]c2ncnc(NC3CCC(CO)NC3)c12` (racemic) [Compound I-343r, rac-(2-chloro-4-phenoxyphenyl)(4-((6-(hydroxymethyl)piperidin-3-yl)amino)-7H-pyrrolo[2,3-d]pyrimidin-5-yl)methanone]?
Answer: IC50 [1]: 11 nM; IC50 [2]: 34 nM

Question: How did the IC50 [1] turn out when `O=C(c1ccc(Oc2ccccc2)cc1Cl)c1c[nH]c2ncnc(NC[C@H]3CCC[C@@H](CO)N3)c12` (racemic) [Compound I-359e, racemic-cis-(2-chloro-4-phenoxyphenyl)(4-(((6-(hydroxymethyl)piperidin-2-yl)methyl)amino)-7H-pyrrolo[2,3-d]pyrimidin-5-yl)methanone] was run?
Answer: 29.4 nM

Question: And the IC50 [2]?
Answer: 124 nM

Question: With `CN1[C@H](CO)CCC[C@@H]1CNc1ncnc2[nH]cc(C(=O)c3ccc(Oc4ccccc4)cc3Cl)c12` (racemic) [Compound I-360e, racemic-cis-(2-chloro-4-phenoxyphenyl)(4-(((6-(hydroxymethyl)-1-methylpiperidin-2-yl)methyl)amino)-7H-pyrrolo[2,3-d]pyrimidin-5-yl)methanone] as the molecule, how does the IC50 [1] read?
Answer: 1.07 nM

Question: And the IC50 [2]?
Answer: 59.4 nM

Question: Which results are given for `CS(=O)(=O)N1CC(Nc2ncnc3[nH]cc(C(=O)c4ccc(Oc5ccccc5)cc4Cl)c23)CCC1CO` (racemic) [Compound I-653, (racemic)-(2-chloro-4-phenoxyphenyl)(4-((6-(hydroxymethyl)-1-(methylsulfonyl)piperidin-3-yl)amino)-7H-pyrrolo[2,3-d]pyrimidin-5-yl)methanone]?
Answer: IC50 [1]: 10 nM; IC50 [2]: 38.8 nM

Question: For `CC(=O)N1CC(Nc2ncnc3[nH]cc(C(=O)c4ccc(Oc5ccccc5)cc4Cl)c23)CCC1CO` (racemic) [Compound I-654, rac-1-(5-((5-(2-chloro-4-phenoxybenzoyl)-7H-pyrrolo[2,3-d]pyrimidin-4-yl)amino)-2-(hydroxymethyl)-piperidin-1-yl)ethan-1-one], which IC50 [1] is on record?
Answer: 6.55 nM

Question: And the IC50 [2]?
Answer: 20.7 nM

Question: For `O=C(Nc1ccccc1)c1ccc(C(=O)c2c[nH]c3ncnc(N[C@@H]4CC[C@@H](CO)OC4)c23)cc1` [Compound I-231, 4-(4-(((3R,6S)-6-(hydroxymethyl)tetrahydro-2H-pyran-3-yl)amino)-7H-pyrrolo[2,3-d]pyrimidine-5-carbonyl)-N-phenylbenzamide], which IC50 [1] is on record?
Answer: 318 nM

Question: And the IC50 [2]?
Answer: 248 nM

Question: `O=C(Nc1ccccc1)c1ccc(C(=O)c2c[nH]c3ncnc(N[C@@H]4CC[C@@H](CO)OC4)c23)c(Cl)c1` [Compound I-236, 3-chloro-4-(4-(((3R,6S)-6-(hydroxymethyl)tetrahydro-2H-pyran-3-yl)amino)-7H-pyrrolo[2,3-d]pyrimidine-5-carbonyl)-N-phenylbenzamide] was tested. Which IC50 [1] did it give?
Answer: 181 nM

Question: And the IC50 [2]?
Answer: 98.4 nM

Question: `O=C(Nc1ccncc1)c1ccc(C(=O)c2c[nH]c3ncnc(N[C@@H]4CC[C@@H](CO)OC4)c23)c(Cl)c1` [Compound I-246, 3-chloro-4-(4-(((3R,6S)-6-(hydroxymethyl)tetrahydro-2H-pyran-3-yl)amino)-7H-pyrrolo[2,3-d]pyrimidine-5-carbonyl)-N-(pyridin-4-yl)benzamide] was tested. Which IC50 [1] did it give?
Answer: 103 nM

Question: And the IC50 [2]?
Answer: 514 nM

Question: How did the IC50 [1] turn out when `O=C(Nc1cccnc1)c1ccc(C(=O)c2c[nH]c3ncnc(N[C@@H]4CC[C@@H](CO)OC4)c23)c(Cl)c1` [Compound I-256, 3-chloro-4-(4-(((3R,6S)-6-(hydroxymethyl)tetrahydro-2H-pyran-3-yl)amino)-7H-pyrrolo[2,3-d]pyrimidine-5-carbonyl)-N-(pyridin-3-yl)benzamide] was run?
Answer: 156 nM

Question: What about the IC50 [2] of the same molecule?
Answer: 317 nM

Question: `O=C(Nc1ccc(C(=O)c2c[nH]c3ncnc(N[C@@H]4CC[C@@H](CO)OC4)c23)c(Cl)c1)c1ccccc1` [Compound I-276, N-(3-chloro-4-(4-(((3R,6S)-6-(hydroxymethyl)tetrahydro-2H-pyran-3-yl)amino)-7H-pyrrolo[2,3-d]pyrimidine-5-carbonyl)phenyl)benzamide] was tested. Which IC50 [1] did it give?
Answer: 17.6 nM

Question: And the IC50 [2]?
Answer: 58 nM

Question: How did the IC50 [1] turn out when `O=C(c1ccc(N2CCOCC2)cc1Cl)c1c[nH]c2ncnc(N[C@@H]3CC[C@@H](CO)OC3)c12` [Compound I-311i, (2-chloro-4-morpholinophenyl)(4-(((3R,6S)-6-(hydroxymethyl)tetrahydro-2H-pyran-3-yl)amino)-7H-pyrrolo[2,3-d]pyrimidin-5-yl)methanone] was run?
Answer: 867 nM

Question: What about the inhibition at 10 µM ([2]; read-out: BTK-C481S % @ 10 uM, @ 10 uM) of the same molecule?
Answer: 81%

Question: How did the IC50 [1] turn out when `COCCOc1ccc(C(=O)c2c[nH]c3ncnc(N[C@@H]4CC[C@@H](CO)OC4)c23)c(Cl)c1` [Compound I-317i, (2-chloro-4-(2-methoxyethoxy)phenyl)(4-(((3R,6S)-6-(hydroxymethyl)tetrahydro-2H-pyran-3-yl)amino)-7H-pyrrolo[2,3-d]pyrimidin-5-yl)methanone] was run?
Answer: 40.7 nM

Question: What about the IC50 [2] of the same molecule?
Answer: 156 nM

Question: With `COCCOc1ccc(C(=O)c2c[nH]c3ncnc(N[C@@H]4CC[C@@H](CO)OC4)c23)cc1` [Compound I-318i, (4-(((3R,6S)-6-(hydroxymethyl)tetrahydro-2H-pyran-3-yl)amino)-7H-pyrrolo[2,3-d]pyrimidin-5-yl)(4-(2-methoxyethoxy)phenyl)methanone] as the molecule, how does the IC50 [1] read?
Answer: 423 nM

Question: And the IC50 [2]?
Answer: 714 nM

Source: US11020398B2, “Amino-pyrrolopyrimidinone compounds and methods of use thereof” (ArQule, Inc., priority 2016, dated 2021)
